The target of test [1] is T1, TKTL1 (transketolase-like-1) (Homo sapiens, UniProt P51854).
T1 construct: CDS in pET-22b(+), His-tagged, E. coli BL21(DE3), Ni-NTA; tag kept (captured on anti-His biosensors)
T1 sequence (P51854 1-596): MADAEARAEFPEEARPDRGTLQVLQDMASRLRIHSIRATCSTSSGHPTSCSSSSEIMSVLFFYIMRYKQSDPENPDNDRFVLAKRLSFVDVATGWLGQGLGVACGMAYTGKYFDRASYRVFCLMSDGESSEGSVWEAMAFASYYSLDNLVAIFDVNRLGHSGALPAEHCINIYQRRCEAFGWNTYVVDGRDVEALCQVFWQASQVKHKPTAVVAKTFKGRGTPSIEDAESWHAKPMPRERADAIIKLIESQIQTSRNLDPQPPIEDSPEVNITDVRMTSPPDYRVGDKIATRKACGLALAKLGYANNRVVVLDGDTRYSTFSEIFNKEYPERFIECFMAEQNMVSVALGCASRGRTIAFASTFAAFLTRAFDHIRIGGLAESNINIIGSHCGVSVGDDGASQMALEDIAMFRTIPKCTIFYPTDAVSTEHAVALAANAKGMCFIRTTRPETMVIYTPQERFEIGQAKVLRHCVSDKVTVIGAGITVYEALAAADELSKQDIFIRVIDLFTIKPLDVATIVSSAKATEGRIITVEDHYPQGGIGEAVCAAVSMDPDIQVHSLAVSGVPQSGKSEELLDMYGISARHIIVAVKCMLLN
As to the kind of experiment: biolayer interferometry, His-tagged protein on anti-His biosensors, […] fit. Format: binding. Particulars: PBST, 30 °C, 0.82-200 µM ligand; KD = kd/ka. (In general: In BLI a coated tip is dipped into the sample, and binding shifts an interference pattern.)

Test [2] concerns the target T2, CPT2 (Homo sapiens, UniProt P23786).
T2 sequence (P23786 26-658): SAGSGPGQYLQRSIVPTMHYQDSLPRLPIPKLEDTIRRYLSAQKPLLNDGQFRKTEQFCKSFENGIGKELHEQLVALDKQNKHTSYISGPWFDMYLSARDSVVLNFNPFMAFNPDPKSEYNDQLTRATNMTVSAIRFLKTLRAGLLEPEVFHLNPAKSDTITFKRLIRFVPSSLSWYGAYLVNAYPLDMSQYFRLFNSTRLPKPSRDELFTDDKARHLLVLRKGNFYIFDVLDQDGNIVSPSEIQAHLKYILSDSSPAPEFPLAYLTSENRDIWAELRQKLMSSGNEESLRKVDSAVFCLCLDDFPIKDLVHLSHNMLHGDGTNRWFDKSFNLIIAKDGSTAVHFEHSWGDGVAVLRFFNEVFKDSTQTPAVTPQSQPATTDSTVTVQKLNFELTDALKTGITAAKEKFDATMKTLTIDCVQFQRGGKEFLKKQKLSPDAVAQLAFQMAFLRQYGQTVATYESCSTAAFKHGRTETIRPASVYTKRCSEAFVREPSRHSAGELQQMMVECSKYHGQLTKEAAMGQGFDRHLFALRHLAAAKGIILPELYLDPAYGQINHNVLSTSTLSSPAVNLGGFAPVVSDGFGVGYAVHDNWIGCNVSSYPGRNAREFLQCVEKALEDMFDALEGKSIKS
Briefly: CoA consumption, DTNB at […] nm. Format: biochemical. Particulars: 2 mM CoA, 2 mM palmitoyl-L-carnitine, pH 7.5, 37 °C.

The values that follow come from PMC12713023, “CDH1 Orchestrates Anabolic Events to Promote Cell Cycle Initiation” (Advanced Science, 2025).

For orientation: Kd means the constant that tells how readily two partners part at equilibrium. A low value points to higher affinity.

Consider `O=S(=O)(O)OC[C@H]1OC(O)[C@H](O)[C@@H]1O` (some centres unmarked) [R5S], for which, in test [1], the affinity, expressed as Kd, was 8.58 µM. For `CC(C)(COP(=O)(O)OP(=O)(O)OC[C@H]1O[C@@H](n2cnc3c(N)ncnc32)[C@H](O)[C@@H]1OP(=O)(O)O)[C@@H](O)C(=O)NCCC(=O)NCCS` [CoA], the relative specific activity entry in test [2] is listed as “CPT2 activity was assayed by measuring the decrease in CoA levels”.
